# Results from US10030064B2, “Mammalian cell culture processes for protein production” (priority 2009, dated 2018).
# Test system: CHO cell line with CTLA4Ig secretion
# Assay: Shake flask culture of CHO cell line secreting CTLA4Ig: VCD and viability (Example 4)
# Format: cell-based, Chinese hamster
# Description: The CHO cell line used in this study was originally subcloned from DG44 parental cells and cultured in a proprietary chemical-defined growth medium.
# The experiments were carried out in 250-mL shake flasks (VWR international) with starting volumes of 100 mL and initial cell densities of 6×10^5 cells/mL. The cultures were placed on a shaker platform (VWR international) at 150 rpm and maintained at 37° C. and 6% CO2 for ten days. The cultures were sampled daily and the pH was adjusted as needed using 1M sodium carbonate and fed with glucose and glutamine every two days in order to maintain them at adequate levels. […] Cell density and viability were measured offline using a Cedex automated cell counter (Innovatis AG, Bielefeld, Germany). Culture pH and concentrations for glucose and glutamine were measured off-line using a Bioprofile Analyzer 400 (Nova Biomedical Corporation, Waltham, Mass.). Supernatants from culture harvests were collected for analysis of sialic acid content and HMW level.
# Cell viability for the untreated cultures decreased rapidly after Day 6 (FIG. 16B) and percent viability on day 10 was only 64.5%.
smiles,measurement,setting,value
"C[C@@H]1C[C@H]2[C@@H]3CCC4=CC(=O)C=C[C@]4(C)[C@@]3(F)[C@@H](O)C[C@]2(C)[C@@]1(O)C(=O)CO [DEX, dexamethasone]",final cell viability (day 10),0.001 μM DEX added day 2,75.5%
same,final cell viability (day 10),10 μM DEX added day 2,82.3%
